Results published in patent US20100144855A1, “APPLICATION OF SEDOISOPROSAN FOR PREPARATION OF MEDICINE FOR TREATMENT OF HUMAN HBeAg POSITIVE CHRONIC HEPATITIS B” (priority 2008, published 2010).

Assay: clinical trial, safety in HBeAg positive chronic hepatitis B patients
Type: in vivo, human
Settings: for cases with adverse events: 16 cases
Text: The clinical trial protocol was designed according to the randomized, double-blind and controlled principle. The clinical efficacy and the safety of sedoisoprosan for therapy on human HBeAg positive chronic hepatitis B is defined according to the changes of vivo HBV-DNA level, ALT level, vital signs, blood routine indexes, blood biochemical indexes and thyroid function indexes before and after administration and the incidence of adverse events.
Patients enrolled in the clinical trials were randomly divided into four groups, i.e. negative control group (800 mg mannite), low dose group (200 mg sedoisoprosan with 600 mg mannite), median dose group (400 mg sedoisoprosan with 400 mg mannite) and high dose group (800 mg sedoisoprosan) respectively. Each patient was assigned with a CRF No. which was randomly generated by computer.
Baseline assessment was performed on the day of the first administration, which included medical examination, hematological examination, blood biochemical examination, thyroid function examination, ALT examination and quantitative detection of HBV-DNA. The medical examination included the examination of stature, avoirdupois, blood pressure and pulse rate. The hematological examination included the leucocyte, neutrophil, erythrocyte, platelet and haemoglobin counts, and the prothrombin time. The blood biochemical examination included the examination of serum potassium, sodium, GOT, total bilirubin, AKP, total protein, albumin, total cholesterol, triglyceride, urea nitrogen, creatinine and glucose.
The patients were followed up at the 1st, 2nd, 4th, 8th and 12th week of the treatment. The blood biochemical examination and the quantitative detection of HBV-DNA was performed at the 2nd, 4th, 8th and 12th week of the treatment, and the adverse events were recorded at the same time. The thyroid function examination was performed at the 12th week of the treatment.
The safety indexes included vital signs, clinical laboratory parameters, adverse events, important adverse events, serious adverse events and the early termination cases. The safety analysis should be performed on patients who have received at least once administration and were evaluated after the administration.
The detection of vital signs and laboratory parameters and the recording for adverse events was performed at baseline and at the 1st, 2nd, 4th, 8th and 12th week of the treatment. The vital signs and laboratory parameters were evaluated by the changes thereof before and after the treatment. The incidence of adverse events was figured by the proportion of patients having adverse events during the treatment, and the evaluation of adverse events included the kinds, grades and the relationship to the drugs. The adverse events were recorded by descriptive statistics, and comparison of the incidence thereof between the four groups was performed by Fisher probabilistic test.

[1] = high dose group, 800 mg, the 1st week
[2] = high dose group, 800 mg, the 2nd week
[3] = high dose group, 800 mg, the 4th week
[4] = high dose group, 800 mg, the 8th week
[5] = high dose group, 800 mg, the 12th week
[6] = low dose group, 200 mg, the 1st week
[7] = low dose group, 200 mg, the 2nd week
[8] = low dose group, 200 mg, the 4th week
[9] = low dose group, 200 mg, the 8th week
[10] = low dose group, 200 mg, the 12th week
[11] = median dose group, 400 mg, the 1st week
[12] = median dose group, 400 mg, the 2nd week
[13] = median dose group, 400 mg, the 4th week
[14] = median dose group, 400 mg, the 8th week

With CC1(C)OC2C3COC(CO)(O3)C(O)C2O1 (centres unmarked) [sedoisoprosan, isopropylidene sedoheptulosan] the “safety of the highest dose (vital signs, blood routine and blood biochemical indexes)” value (800 mg) was “safe”, the “changes in total bilirubin levels before and after the treatment” value (12 weeks' treatment) was “significant changes in total bilirubin levels before and after the treatment, but such changes were still within the normal range” and the “changes in vital signs, blood routine indexes and blood biochemical indexes, excluding the total bilirubin levels, before and after the treatment” value (12 weeks' treatment) was “No significant changes”. For the same compound, the “important adverse events related to the study drug and needing treatment” value (CRF16, CRF19 and CRF20) was 3 cases, the “central nervous system abnormalities among adverse events” value (all groups) was “No central nervous system abnormalities were found” and the “incidence of adverse events” value (clinical trials, 200-800 mg) was “low”. The “patients who quitted the clinical trials for adverse events” value (high dose group) was “No patients”, the “cases with adverse events” value (high dose group (800 mg)) was “two” and the Avoirdupois [1] was 61.34 ± 9.96 kg. For the same compound, the “Diastolic Pressure” value [1] was 75.31 ± 7.26 mmHg, the Pulse rate [1] was 76.00 ± 5.81 times/min and the Respiratory frequency [1] was 18.00 ± 1.86 times/min. For the same compound, the “Systolic Pressure” value [1] was 115.56 ± 13.17 mmHg, the Avoirdupois [2] was 61.41 ± 9.89 kg and the “Diastolic Pressure” value [2] was 75.31 ± 6.14 mmHg. The Pulse rate [2] was 75.81 ± 5.27 times/min, the Respiratory frequency [2] was 18.38 ± 1.78 times/min and the “Systolic Pressure” value [2] was 112.81 ± 12.55 mmHg. For the same compound, the Avoirdupois [3] was 61.53 ± 9.81 kg, the “Diastolic Pressure” value [3] was 75.44 ± 6.03 mmHg and the Pulse rate [3] was 76.38 ± 5.95 times/min. For the same compound, the Respiratory frequency [3] was 17.94 ± 1.84 times/min, the “Systolic Pressure” value [3] was 112.69 ± 11.69 mmHg and the Avoirdupois [4] was 62.06 ± 9.20 kg. The “Diastolic Pressure” value [4] was 77.56 ± 5.05 mmHg, the Pulse rate [4] was 75.75 ± 5.27 times/min and the Respiratory frequency [4] was 18.75 ± 1.24 times/min. For the same compound, the “Systolic Pressure” value [4] was 115.19 ± 10.91 mmHg, the Avoirdupois [5] was 62.67 ± 9.45 kg and the “Diastolic Pressure” value [5] was 76.73 ± 5.16 mmHg. The Pulse rate [5] was 75.73 ± 4.85 times/min, the Respiratory frequency [5] was 19.13 ± 1.13 times/min and the “Systolic Pressure” value [5] was 115.20 ± 11.55 mmHg. The “cases with adverse events” value (low dose group (200 mg)) was “four”, the Avoirdupois [6] was 61.72 ± 10.47 kg and the “Diastolic Pressure” value [6] was 72.38 ± 5.14 mmHg. The Pulse rate [6] was 76.06 ± 5.95 times/min, the Respiratory frequency [6] was 18.63 ± 1.31 times/min and the “Systolic Pressure” value [6] was 116.63 ± 8.79 mmHg. The Avoirdupois [7] was 61.59 ± 10.80 kg, the “Diastolic Pressure” value [7] was 73.38 ± 6.01 mmHg and the Pulse rate [7] was 74.13 ± 4.70 times/min. For the same compound, the Respiratory frequency [7] was 18.75 ± 1.57 times/min, the “Systolic Pressure” value [7] was 116.00 ± 10.67 mmHg and the Avoirdupois [8] was 61.57 ± 10.72 kg. For the same compound, the “Diastolic Pressure” value [8] was 74.87 ± 6.55 mmHg, the Pulse rate [8] was 75.13 ± 4.50 times/min and the Respiratory frequency [8] was 18.60 ± 1.30 times/min. For the same compound, the “Systolic Pressure” value [8] was 113.93 ± 9.95 mmHg, the Avoirdupois [9] was 62.86 ± 11.14 kg and the “Diastolic Pressure” value [9] was 73.29 ± 5.82 mmHg. The Pulse rate [9] was 73.57 ± 5.65 times/min, the Respiratory frequency [9] was 18.64 ± 1.45 times/min and the “Systolic Pressure” value [9] was 115.71 ± 9.75 mmHg. For the same compound, the Avoirdupois [10] was 63.58 ± 12.09 kg, the “Diastolic Pressure” value [10] was 74.54 ± 4.94 mmHg and the Pulse rate [10] was 71.54 ± 4.16 times/min. For the same compound, the Respiratory frequency [10] was 19.15 ± 1.28 times/min, the “Systolic Pressure” value [10] was 115.85 ± 10.79 mmHg and the “cases with adverse events” value (median dose group (400 mg)) was “four”. The Avoirdupois [11] was 62.67 ± 12.11 kg, the “Diastolic Pressure” value [11] was 71.53 ± 7.53 mmHg and the Pulse rate [11] was 77.60 ± 3.83 times/min. The Respiratory frequency [11] was 19.13 ± 3.76 times/min, the “Systolic Pressure” value [11] was 114.33 ± 11.00 mmHg and the Avoirdupois [12] was 62.30 ± 12.09 kg. For the same compound, the “Diastolic Pressure” value [12] was 71.73 ± 6.24 mmHg, the Pulse rate [12] was 75.47 ± 5.36 times/min and the Respiratory frequency [12] was 18.53 ± 3.54 times/min. The “Systolic Pressure” value [12] was 114.67 ± 9.85 mmHg, the Avoirdupois [13] was 61.73 ± 9.86 kg and the “Diastolic Pressure” value [13] was 73.13 ± 5.69 mmHg. The Pulse rate [13] was 76.40 ± 3.81 times/min, the Respiratory frequency [13] was 18.40 ± 4.03 times/min and the “Systolic Pressure” value [13] was 115.80 ± 10.25 mmHg. For the same compound, the Avoirdupois [14] was 62.70 ± 11.76 kg, the “Diastolic Pressure” value [14] was 73.73 ± 4.51 mmHg and the Pulse rate [14] was 75.40 ± 3.25 times/min. The Respiratory frequency [14] was 19.27 ± 2.34 times/min and the “Systolic Pressure” value [14] was 110.87 ± 7.70 mmHg.
